Assay results reported in PMC12220852, “An adamantane‐based ligand as a novel chemical tool for thermosensory TRPM8 channel therapeutic modulation” (The Febs Journal, 2025).
“Also recorded” adds a separate entry of the source. Read-outs that look alike come from different tables or passages of the source.

Columns and labels:
[1] = target: T1, recombinant human TRPM8 stably expressed in HEK293 cells (hTRPM8) (Homo sapiens, UniProt Q7Z2W7); experiment: Ca2+ microfluorimetry screen for agonist/antagonist activity in hTRPM8-HEK293 cells; assay type: cell-based; settings: for Activity (agonist/antagonist): agonism = compound-induced Ca2+ influx, antagonism = modulation of WS-12-induced Ca2+ influx; for Hill coefficient: hTRPM8-HEK293 Ca2+ microfluorimetry dose-response; for EC50: half of channel activation
T1 construct: expressed in transfected cells
T1 sequence (Q7Z2W7 whole entry): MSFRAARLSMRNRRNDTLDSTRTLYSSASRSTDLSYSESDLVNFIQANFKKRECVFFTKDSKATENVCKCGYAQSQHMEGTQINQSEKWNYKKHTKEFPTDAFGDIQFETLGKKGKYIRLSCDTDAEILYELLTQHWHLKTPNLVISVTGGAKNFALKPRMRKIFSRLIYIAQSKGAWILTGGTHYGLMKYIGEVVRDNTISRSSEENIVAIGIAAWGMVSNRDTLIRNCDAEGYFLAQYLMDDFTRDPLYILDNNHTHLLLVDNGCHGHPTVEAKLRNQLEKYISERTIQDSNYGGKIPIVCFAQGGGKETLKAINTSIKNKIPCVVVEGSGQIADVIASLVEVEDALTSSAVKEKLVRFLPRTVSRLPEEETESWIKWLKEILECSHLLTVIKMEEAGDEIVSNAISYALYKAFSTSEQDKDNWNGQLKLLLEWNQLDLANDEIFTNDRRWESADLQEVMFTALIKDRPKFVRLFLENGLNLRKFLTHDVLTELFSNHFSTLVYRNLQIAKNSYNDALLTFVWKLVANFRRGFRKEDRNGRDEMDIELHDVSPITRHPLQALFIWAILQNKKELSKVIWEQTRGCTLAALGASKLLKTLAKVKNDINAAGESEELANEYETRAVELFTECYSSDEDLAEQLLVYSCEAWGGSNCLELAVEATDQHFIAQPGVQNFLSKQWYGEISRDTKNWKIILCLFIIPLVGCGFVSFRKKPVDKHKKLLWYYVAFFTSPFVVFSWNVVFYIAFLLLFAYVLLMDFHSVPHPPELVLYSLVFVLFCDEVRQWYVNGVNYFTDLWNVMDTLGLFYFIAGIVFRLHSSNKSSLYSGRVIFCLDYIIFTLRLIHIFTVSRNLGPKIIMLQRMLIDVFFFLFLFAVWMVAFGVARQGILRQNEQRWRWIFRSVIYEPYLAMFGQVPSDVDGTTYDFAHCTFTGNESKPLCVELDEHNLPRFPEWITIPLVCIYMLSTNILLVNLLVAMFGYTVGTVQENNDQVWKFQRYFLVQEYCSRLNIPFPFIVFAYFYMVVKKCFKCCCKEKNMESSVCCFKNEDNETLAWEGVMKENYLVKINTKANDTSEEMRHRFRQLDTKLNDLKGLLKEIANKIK
Excerpt: We first evaluated the series of compounds 20–29 synthesized using the Passerini‐Adamantane reaction. All compounds were screened for channel agonism and antagonism on recombinant human TRPM8 stably expressed in HEK293 cells (hTRPM8‐HEK293) with Ca^2+ microfluorimetry. […] Compound‐induced TRPM8‐mediated Ca^2+ influx was confirmed using untransfected HEK293 cells and the channel blocker AMTB. […] The concentration of compounds to reach half of channel activation (EC50) or to block half‐channel activity evoked by WS‐12 (IC50) are reported in Table 1, along with the percentage of maximal activation or blockade (Efficacy).
Assays were conducted to assess the channel activity of the recombinant hTRPM8 stably expressed in HEK‐293 cells. HEK‐293‐hTRPM8 cells were cultured in a monolayer using a DMEM GlutaMax with 10% FBS and 1% P/S and maintained at 37 °C in 5% CO2. For experiments, cells were prepared and seeded at the indicated densities. To evaluate compound effectiveness against hTRPM8 activity, microfluorometry‐based calcium flux assays were performed using Fluo‐4 NW Ca^2+ dye and fluorescence detection. HEK cell lines expressing hTRPM8 were seeded in 96‐well plates and incubated with the dye‐loading solution. Ion channel activity was measured using a plate reader, and fluorescence intensity changes were recorded following the addition of vehicle, compound at varying concentrations, and antagonist (10 μM AMTB). Data analysis included calculating the Z‐factor for each assay and normalizing compound effects to […]. Data were analyzed to determine the concentration exerting half‐maximal inhibition (IC50) or activation (EC50) of agonist‐induced calcium elevation, using GRAPHPAD PRISM8® software (Boston, MA, USA). All experiments were conducted in triplicate, and results are presented as mean ± standard deviation.

[2] = target: T1, recombinant human TRPM8 stably expressed in HEK293 cells (hTRPM8); experiment: as above; assay type: cell-based; settings: agonists vs WS-12, antagonists vs WS-12 response, read-out: Efficacy (percentage of maximal activation or blockade)
[3] = hTRPM8-HEK293, block of half channel activity evoked by WS-12, mean ± SD, N = 3, read-out: IC50
[4] = hTRPM8-HEK293, mean ± SD, N = 3

In the case of `O=C(COC(=O)c1ccccc1)NC12CC3CC(CC(C3)C1)C2` [Compound 20, 2‐((3S,5S,7S)‐adamantan‐1‐ylamino)‐2‐oxoethyl benzoate], the “Activity (agonist/antagonist)” value ([1]; hTRPM8-HEK293) is reported as “Antagonist”, the IC50 [1, 3] is reported as 1800 ± 1100 nM and the Hill coefficient ([1]; mean ± SD) is reported as 0.4 ± 1.2. For the same compound, the Emax [2] was 60%.
`O=C(COC(=O)Cc1ccccc1)NC12CC3CC(CC(C3)C1)C2` [Compound 21, 2‐((3S,5S,7S)‐adamantan‐1‐ylamino)‐2‐oxoethyl 2‐phenylacetate] was tested, and the IC50 [1] was 1500 ± 1100 nM, the “Activity (agonist/antagonist)” value ([1]; hTRPM8-HEK293) was “Antagonist” and the Hill coefficient ([1]; mean ± SD) was 0.5 ± 2.3. It also gave an Emax [2] of 44%.
`CC(=O)OCC(=O)NC12CC3CC(CC(C3)C1)C2` [Compound 22, 2‐((3S,5S,7S)‐adamantan‐1‐ylamino)‐2‐oxoethyl acetate] was tested, and the “Activity (agonist/antagonist)” value ([1]; hTRPM8-HEK293) was “agonistic activity; also recorded: Agonist”, the EC50 [1, 4] was 1100 ± 1500 nM and the Hill coefficient ([1]; mean ± SD) was 0.4 ± 1.3. It also gave an Emax [2] of 64%.
In the case of `CCCC(=O)OCC(=O)NC12CC3CC(CC(C3)C1)C2` [Compound 24, 2‐((3S,5S,7S)‐adamantan‐1‐ylamino)‐2‐oxoethyl butyrate], the “Activity (agonist/antagonist)” value ([1]; hTRPM8-HEK293) is reported as “agonistic activity; also recorded: Agonist”, the EC50 [1, 4] is reported as 19000 ± 2000 nM and the Hill coefficient ([1]; mean ± SD) is reported as 0.6 ± 0.2. It also gave an Emax [2] of 19%.
`O=C(COC(=O)C1CCCC1)NC12CC3CC(CC(C3)C1)C2` [Compound 25, 2‐((3S,5S,7S)‐adamantan‐1‐ylamino)‐2‐oxoethyl cyclopentane carboxylate] was tested, and the “Activity (agonist/antagonist)” value ([1]; hTRPM8-HEK293) was “Antagonist”, the IC50 [1, 3] was 45000 ± 2000 nM and the Hill coefficient ([1]; mean ± SD) was 0.8 ± 3.0. It also gave an Emax [2] of 57%.
`O=C(COC(=O)c1cccnc1)NC12CC3CC(CC(C3)C1)C2` [Compound 26, 2‐((3S,5S,7S)‐adamantan‐1‐ylamino)‐2‐oxoethyl nicotinate] was tested, and the “Activity (agonist/antagonist)” value ([1]; hTRPM8-HEK293) was “agonist activity”, the EC50 [1, 4] was 1900 ± 1600 nM and the Hill coefficient ([1]; mean ± SD) was 0.4 ± 6.4. It also gave an Emax [2] of 72%.
In the case of `CC(=O)NCCCC(=O)OCC(=O)NC12CC3CC(CC(C3)C1)C2` [Compound 27, 2‐((3S,5S,7S)‐adamantan‐1‐ylamino)‐2‐oxoethyl 4‐acetamidobutanoate], the “Activity (agonist/antagonist)” value ([1]; hTRPM8-HEK293) is reported as “agonistic activity; also recorded: Agonist”, the EC50 [1, 4] is reported as 600 ± 1200 nM and the Hill coefficient ([1]; mean ± SD) is reported as 0.3 ± 1.6. It also gave an Emax [2] of 60%.
For `O=C(COC(=O)c1ccc(Cl)cc1)NC12CC3CC(CC(C3)C1)C2` [Compound 28, 2‐((3S,5S,7S)‐adamantan‐1‐ylamino)‐2‐oxoethyl 4‐chlorobenzoate], the “Activity (agonist/antagonist)” value ([1]; hTRPM8-HEK293) was “agonist activity”, the EC50 [1, 4] was 1200 ± 1200 nM and the Hill coefficient ([1]; mean ± SD) was 0.1 ± 0.2. The Emax [2] was 87%.
`O=C(COC(=O)c1cccc([N+](=O)[O-])c1)NC12CC3CC(CC(C3)C1)C2` [Compound 29, 2‐((3S,5S,7S)‐adamantan‐1‐ylamino)‐2‐oxoethyl 3‐nitrobenzoate] was tested, and the “Activity (agonist/antagonist)” value ([1]; hTRPM8-HEK293) was “Antagonist”, the IC50 [1, 3] was 2300 ± 1100 nM and the Hill coefficient ([1]; mean ± SD) was 0.5 ± 3.0. It also gave an Emax [2] of 69%.
With `O=C(CN(C(=O)c1ccccc1)C1CC1)NC12CC3CC(CC(C3)C1)C2` [Compound 30, N‐(2‐(((3S,5S,7S)‐adamantan‐1‐yl)amino)‐2‐oxoethyl)‐N‐cyclopropylbenzamide] the “Activity (agonist/antagonist)” value ([1]; hTRPM8-HEK293) was “Agonist”, the EC50 [1, 4] was 1500 ± 1500 nM and the Hill coefficient ([1]; mean ± SD) was 0.7 ± 1.6. The Emax [2] was 92%.
For `CCCC(=O)N(CC(=O)NC12CC3CC(CC(C3)C1)C2)C1CC1` [Compound 31, N‐(2‐(((3S,5S,7S)‐adamantan‐1‐yl)amino)‐2‐oxoethyl)‐N‐cyclopropylbutyramide], the “Activity (agonist/antagonist)” value ([1]; hTRPM8-HEK293) was “Agonist”, the EC50 [1, 4] was 300 nM and the Hill coefficient ([1]; mean ± SD) was 0.7 ± 2.5. The Emax [2] was 72%.
With `O=C(CN(C(=O)C1CCCC1)C1CC1)NC12CC3CC(CC(C3)C1)C2` [Compound 32, N‐(2‐(((3S,5S,7S)‐adamantan‐1‐yl)amino)‐2‐oxoethyl)‐N‐cyclopropylcyclopentanecarboxamide] the “Activity (agonist/antagonist)” value ([1]; hTRPM8-HEK293) was “potent hTRPM8 agonist”, the EC50 [1, 4] was 400 nM and the Hill coefficient ([1]; mean ± SD) was 0.2 ± 1.5. The Emax [2] was 56%.
In the case of `O=C(CN(C(=O)c1ccccc1-c1ccccc1)C1CC1)NC12CC3CC(CC(C3)C1)C2` [Compound 33, N‐(2‐(((3S,5S,7S)‐adamantan‐1‐yl)amino)‐2‐oxoethyl)‐N‐cyclopropyl‐[1,1′‐biphenyl]‐2‐carboxamide], the “Activity (agonist/antagonist)” value ([1]; hTRPM8-HEK293) is reported as “moderate antagonistic activity; also recorded: Antagonist”, the IC50 [1, 3] is reported as 1100 ± 1200 nM and the Hill coefficient ([1]; mean ± SD) is reported as 2.0 ± 7.8. For the same compound, the Emax [2] was 48%.
In the case of `CC(=O)N(CC(=O)NC12CC3CC(CC(C3)C1)C2)C1CC1` [Compound 34, N‐((3S,5S,7S)‐adamantan‐1‐yl)‐2‐(N‐cyclopropylacetamido)acetamide], the “Activity (agonist/antagonist)” value ([1]; hTRPM8-HEK293) is reported as “Agonist”, the EC50 [1, 4] is reported as 200 nM and the Hill coefficient ([1]; mean ± SD) is reported as 0.3 ± 14. It also gave an Emax [2] of 54%.
For `O=C(CN(C(=O)c1cc2ccccc2s1)C1CC1)NC12CC3CC(CC(C3)C1)C2` [Compound 35, N‐(2‐(((3S,5S,7S)‐adamantan‐1‐yl)amino)‐2‐oxoethyl)‐N‐cyclopropylbenzo[b]thiophene‐2‐carboxamide], the “Activity (agonist/antagonist)” value ([1]; hTRPM8-HEK293) was “moderate antagonistic activity; also recorded: Antagonist”, the IC50 [1, 3] was 600 ± 1200 nM and the Hill coefficient ([1]; mean ± SD) was 2.0 ± 4.3. For the same compound, the Emax [2] was 40%.
For `O=C(CN(C(=O)Cc1ccccc1)C1CC1)NC12CC3CC(CC(C3)C1)C2` [Compound 36, N‐(2‐(((3S,5S,7S)‐adamantan‐1‐yl)amino)‐2‐oxoethyl)‐N‐cyclopropyl‐2‐phenylacetamide], the “Activity (agonist/antagonist)” value ([1]; hTRPM8-HEK293) was “Agonist”, the EC50 [1, 4] was 4900 ± 1700 nM and the Hill coefficient ([1]; mean ± SD) was 2.3 ± 2.6. It also gave an Emax [2] of 47%.
With `CC(=O)N(CC(=O)NC12CC3CC(CC(C3)C1)C2)C1CCCCC1` [Compound 37, N‐((3S,5S,7S)‐adamantan‐1‐yl)‐2‐(N‐cyclohexylacetamido)acetamide] the “Activity (agonist/antagonist)” value ([1]; hTRPM8-HEK293) was “Agonist”, the EC50 [1, 4] was 200 nM and the Hill coefficient ([1]; mean ± SD) was 0.9 ± 9.2. The Emax [2] was 48%.
For `CC(=O)N(CC(=O)NC12CC3CC(CC(C3)C1)C2)C12CC3CC(CC(C3)C1)C2` [Compound 38, N‐((3S,5S,7S)‐adamantan‐1‐yl)‐2‐(N‐((3S,5S,7S)‐adamantan‐1‐yl)acetamido)acetamide], the “Activity (agonist/antagonist)” value ([1]; hTRPM8-HEK293) was “Agonist”, the EC50 [1, 4] was 2000 ± 1400 nM and the Hill coefficient ([1]; mean ± SD) was 0.3 ± 3.6. For the same compound, the Emax [2] was 65%.
For `CCCCN(CC(=O)NC12CC3CC(CC(C3)C1)C2)C(C)=O` [Compound 39, N‐((3S,5S,7S)‐adamantan‐1‐yl)‐2‐(N‐butylacetamido)acetamide], the “Activity (agonist/antagonist)” value ([1]; hTRPM8-HEK293) was “Agonist”, the EC50 [1, 4] was 500 ± 1400 nM and the Hill coefficient ([1]; mean ± SD) was 0.4 ± 9.1. For the same compound, the Emax [2] was 64%.
`CC(=O)N(CC(=O)NC12CC3CC(CC(C3)C1)C2)Cc1ccccc1` [Compound 40, N‐((3S,5S,7S)‐adamantan‐1‐yl)‐2‐(N‐benzylacetamido)acetamide] was tested, and the “Activity (agonist/antagonist)” value ([1]; hTRPM8-HEK293) was “Agonist”, the EC50 [1, 4] was 1400 ± 1400 nM and the Hill coefficient ([1]; mean ± SD) was 0.7 ± 2.4. The Emax [2] was 86%.
`O=C(CN(Cc1ccccc1)C(=O)Cc1ccccc1)NC12CC3CC(CC(C3)C1)C2` [Compound 41, N‐(2‐(((3S,5S,7S)‐adamantan‐1‐yl)amino)‐2‐oxoethyl)‐N‐benzyl‐2‐phenylacetamide] was tested, and the “Activity (agonist/antagonist)” value ([1]; hTRPM8-HEK293) was “Agonist”, the EC50 [1, 4] was 900 ± 1100 nM and the Hill coefficient ([1]; mean ± SD) was 2.1 ± 1.0. The Emax [2] was 49%.
With `O=C(CN1CCN(C(=O)c2ccccc2)CC1)NC12CC3CC(CC(C3)C1)C2` [Compound 42, N‐((3S,5S,7S)‐adamantan‐1‐yl)‐2‐(4‐benzoylpiperazin‐1‐yl)acetamide] the “Activity (agonist/antagonist)” value ([1]; hTRPM8-HEK293) was “Agonist”, the EC50 [1, 4] was 5400 ± 1500 nM and the Hill coefficient ([1]; mean ± SD) was 0.4 ± 4.3. The Emax [2] was 73%.
